{"source": "patent US12678446B2", "about": "(PFIZER INC., priority 2020, dated 2026)", "key": {"cell toxicity CC50": {"test": "cell toxicity CC50", "type": "cell-based", "settings": "human; Hep-G2 cells; mean of at least two experiments; read-out: Cell Cytotoxicity CC50"}, "[1]": {"system": "RSV (RSV A2 ECACC, 0709161v)", "test": "RSV plaque reduction assay", "type": "cell-based, respiratory syncytial virus", "settings": "human respiratory syncytial virus, HepG2, read-out: RSV A2 Plaque EC50, RSV A2 in Hep-G2 cells; mean of at least two experiments unless noted (n = 1)", "procedure,_shortened": "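Eight-point compound dilutions were premixed with RSV A2 (100 PFU/well) and applied to confluent Hep-G2 cells for 2 h, followed by a 2-day incubation at 37° C. under compound-containing 0.8% CMC overlay. EC50 comes from immunostained plaque counts relative to untreated virus wells, averaged over ≥2 runs.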"}}}
{"compound": "CN(CC1COc2c(C(=O)N[C@H]3N=C(c4ccccc4)c4cccc(F)c4NC3=O)c(-c3ccccc3F)nn2C1)C1CCOCC1", "note": "(stereo partly drawn) [Example 168, N-[(3S)-9-fluoro-2-oxo-5-phenyl-1,3-dihydro-1,4-benzodiazepin-3-yl]-2-(2-fluorophenyl)-6-[[methyl(oxan-4-yl)amino]methyl]-6,7-dihydro-5H-pyrazolo[5,1-b][1,3]oxazine-3-carboxamide]", "values": [{"measurement": "CC50", "setting": "cell toxicity CC50", "value": "> 25000", "unit": "nM"}, {"measurement": "EC50", "setting": "[1]", "value": 104, "unit": "nM"}]}
{"compound": "CN(CC1COc2c(C(=O)N[C@H]3N=C(c4ccccc4)c4cccc(F)c4NC3=O)c(-c3ccccc3F)nn2C1)C1COC1", "note": "(stereo partly drawn) [Example 169, N-[(3S)-9-fluoro-2-oxo-5-phenyl-1,3-dihydro-1,4-benzodiazepin-3-yl]-2-(2-fluorophenyl)-6-[[methyl(oxetan-3-yl)amino]methyl]-6,7-dihydro-5H-pyrazolo[5,1-b][1,3]oxazine-3-carboxamide]", "values": [{"measurement": "CC50", "setting": "cell toxicity CC50", "value": "> 25000", "unit": "nM"}, {"measurement": "EC50", "setting": "[1]", "value": 114, "unit": "nM"}]}
{"compound": "C[C@@H]1CCn2nc(-c3ccc(CN(C)C)cc3F)c(C(=O)N[C@H]3N=C(c4ccccc4)c4cccc(F)c4NC3=O)c2O1", "note": "[Example 170, (5R)-2-[4-[(Dimethylamino)methyl]-2-fluorophenyl]-N-[(3S)-9-fluoro-2-oxo-5-phenyl-1,3-dihydro-1,4-benzodiazepin-3-yl]-5-methyl-6,7-dihydro-5H-pyrazolo[5,1-b][1,3]oxazine-3-carboxamide]", "values": [{"measurement": "CC50", "setting": "cell toxicity CC50", "value": "> 25000", "unit": "nM"}, {"measurement": "EC50", "setting": "[1]", "value": 60, "unit": "nM"}]}
{"compound": "CN1CCN(CC2COc3c(C(=O)N[C@H]4N=C(c5ccccc5)c5cccc(F)c5NC4=O)c(-c4ccccc4F)nn3C2)CC1", "note": "(stereo partly drawn) [Example 172, N-[(3S)-9-fluoro-2-oxo-5-phenyl-1,3-dihydro-1,4-benzodiazepin-3-yl]-2-(2-fluorophenyl)-6-[(4-methylpiperazin-1-yl)methyl]-6,7-dihydro-5H-pyrazolo[5,1-b][1,3]oxazine-3-carboxamide]", "values": [{"measurement": "CC50", "setting": "cell toxicity CC50", "value": "> 19900", "unit": "nM"}, {"measurement": "EC50", "setting": "[1]", "value": 235, "unit": "nM"}]}
{"compound": "CCN(Cc1ccccc1)CC1COc2c(C(=O)N[C@H]3N=C(c4ccccc4)c4cccc(F)c4NC3=O)c(-c3ccccc3F)nn2C1", "note": "(stereo partly drawn) [Example 174, 6-[[Benzyl(ethyl)amino]methyl]-N-[(3S)-9-fluoro-2-oxo-5-phenyl-1,3-dihydro-1,4-benzodiazepin-3-yl]-2-(2-fluorophenyl)-6,7-dihydro-5H-pyrazolo[5,1-b][1,3]oxazine-3-carboxamide]", "values": [{"measurement": "CC50", "setting": "cell toxicity CC50", "value": "> 25000", "unit": "nM"}, {"measurement": "EC50", "setting": "[1]", "value": 406, "unit": "nM"}]}
{"compound": "COC1COc2c(C(=O)N[C@H]3N=C(c4ccccc4)c4cccc(F)c4NC3=O)c(-c3ccccc3F)nn2C1", "note": "(stereo partly drawn) [Example 175, 2-(2-Fluorophenyl)-6-methoxy-N-[(3S)-9-fluoro-2-oxo-5-phenyl-1,3-dihydro-1,4-benzodiazepin-3-yl]-6,7-dihydro-5H-pyrazolo[5,1-b][1,3]oxazine-3-carboxamide]", "values": [{"measurement": "CC50", "setting": "cell toxicity CC50", "value": "> 25000", "unit": "nM"}, {"measurement": "EC50", "setting": "[1]", "value": 61, "unit": "nM"}]}
{"compound": "CCc1ccc(-c2nn3c(c2C(=O)N[C@H]2N=C(c4ccccc4)c4ccccc4NC2=O)OCC2(CCC2)C3)cn1", "note": "[Example 176, 2-(6-Ethylpyridin-3-yl)-N-[(3S)-2-oxo-5-phenyl-1,3-dihydro-1,4-benzodiazepin-3-yl]spiro[5,7-dihydropyrazolo[5,1-b][1,3]oxazine-6,1′-cyclobutane]-3-carboxamide]", "values": [{"measurement": "CC50", "setting": "cell toxicity CC50", "value": "> 25000", "unit": "nM"}, {"measurement": "EC50", "setting": "[1]", "value": 63, "unit": "nM"}]}
{"compound": "CCc1ccc(-c2nn3c(c2C(=O)N[C@H]2N=C(c4ccccc4)c4cccc(F)c4NC2=O)OCC2(CCC2)C3)cn1", "note": "[Example 177, 2-(6-Ethylpyridin-3-yl)-N-[(3S)-9-fluoro-2-oxo-5-phenyl-1,3-dihydro-1,4-benzodiazepin-3-yl]spiro[5,7-dihydropyrazolo[5,1-b][1,3]oxazine-6,1′-cyclobutane]-3-carboxamide]", "values": [{"measurement": "CC50", "setting": "cell toxicity CC50", "value": "> 25000", "unit": "nM"}, {"measurement": "EC50", "setting": "[1]", "value": 125, "unit": "nM"}]}
{"compound": "CC(C)Nc1ccc(-c2nn3c(c2C(=O)N[C@H]2N=C(c4ccccc4)c4ccccc4NC2=O)OCC2(CC2)C3)cn1", "note": "[Example 178, 2-[6-(Propan-2-ylamino)pyridin-3-yl]-N-[(3S)-2-oxo-5-phenyl-1,3-dihydro-1,4-benzodiazepin-3-yl]spiro[5,7-dihydropyrazolo[5,1-b][1,3]oxazine-6,1′-cyclopropane]-3-carboxamide]", "values": [{"measurement": "CC50", "setting": "cell toxicity CC50", "value": "> 25000", "unit": "nM"}, {"measurement": "EC50", "setting": "[1]", "value": 75, "unit": "nM"}]}
{"compound": "CC(C)Nc1ccc(-c2nn3c(c2C(=O)N[C@H]2N=C(c4ccccc4)c4cccc(F)c4NC2=O)OCC2(CC2)C3)cn1", "note": "[Example 179, 2-[6-(Propan-2-ylamino)pyridin-3-yl]-N-[(3S)-9-fluoro-2-oxo-5-phenyl-1,3-dihydro-1,4-benzodiazepin-3-yl]spiro[5,7-dihydropyrazolo[5,1-b][1,3]oxazine-6,1′-cyclopropane]-3-carboxamide]", "values": [{"measurement": "CC50", "setting": "cell toxicity CC50", "value": "> 25000", "unit": "nM"}, {"measurement": "EC50", "setting": "[1]", "value": 34, "unit": "nM"}]}
{"compound": "CCc1ccc(-c2nn3c(c2C(=O)N[C@H]2N=C(c4ccccc4)c4ccccc4NC2=O)OCC2(CC2)C3)cn1", "note": "[Example 180, 2-(6-Ethylpyridin-3-yl)-N-[(3S)-2-oxo-5-phenyl-1,3-dihydro-1,4-benzodiazepin-3-yl]spiro[5,7-dihydropyrazolo[5,1-b][1,3]oxazine-6,1′-cyclopropane]-3-carboxamide]", "values": [{"measurement": "CC50", "setting": "cell toxicity CC50", "value": "> 25000", "unit": "nM"}, {"measurement": "EC50", "setting": "[1]", "value": 75, "unit": "nM"}]}
{"compound": "CCc1ccc(-c2nn3c(c2C(=O)N[C@H]2N=C(c4ccccc4)c4cccc(F)c4NC2=O)OCC2(CC2)C3)cn1", "note": "[Example 181, 2-(6-Ethylpyridin-3-yl)-N-[(3S)-9-fluoro-2-oxo-5-phenyl-1,3-dihydro-1,4-benzodiazepin-3-yl]spiro[5,7-dihydropyrazolo[5,1-b][1,3]oxazine-6,1′-cyclopropane]-3-carboxamide]", "values": [{"measurement": "CC50", "setting": "cell toxicity CC50", "value": "> 25000", "unit": "nM"}, {"measurement": "EC50", "setting": "[1]", "value": 42, "unit": "nM"}]}
{"compound": "CC(C)NCc1ccc(-c2nn3c(c2C(=O)N[C@H]2N=C(c4ccccc4)c4cccc(F)c4NC2=O)O[C@H](C)CC3)c(F)c1", "note": "[Example 183, (5R)-N-[(3S)-9-fluoro-2-oxo-5-phenyl-1,3-dihydro-1,4-benzodiazepin-3-yl]-2-[2-fluoro-4-[(propan-2-ylamino)methyl]phenyl]-5-methyl-6,7-dihydro-5H-pyrazolo[5,1-b][1,3]oxazine-3-carboxamide]", "values": [{"measurement": "CC50", "setting": "cell toxicity CC50", "value": "> 25000", "unit": "nM"}, {"measurement": "EC50", "setting": "[1]", "value": 294, "unit": "nM"}]}
{"compound": "CS(=O)(=O)CC1COc2c(C(=O)N[C@H]3N=C(c4ccccc4)c4cccc(F)c4NC3=O)c(-c3ccccc3F)nn2C1", "note": "(stereo partly drawn) [Example 184, N-[(3S)-9-fluoro-2-oxo-5-phenyl-1,3-dihydro-1,4-benzodiazepin-3-yl]-2-(2-fluorophenyl)-6-(methylsulfonylmethyl)-6,7-dihydro-5H-pyrazolo[5,1-b][1,3]oxazine-3-carboxamide]", "values": [{"measurement": "CC50", "setting": "cell toxicity CC50", "value": "> 25000", "unit": "nM"}, {"measurement": "EC50", "setting": "[1]", "value": 300, "unit": "nM"}]}
{"compound": "O=C(N[C@H]1N=C(c2ccccc2)c2cccc(F)c2NC1=O)c1c(-c2ccccc2F)nn2c1OCC1(CCC1)C2", "note": "[Example 185, 2-(2-Fluorophenyl)-N-[(3S)-9-fluoro-2-oxo-5-phenyl-1,3-dihydro-1,4-benzodiazepin-3-yl]spiro[5,7-dihydropyrazolo[5,1-b][1,3]oxazine-6,1′-cyclobutane]-3-carboxamide]", "values": [{"measurement": "CC50", "setting": "cell toxicity CC50", "value": "> 25000", "unit": "nM"}, {"measurement": "EC50", "setting": "[1]", "value": 32, "unit": "nM"}]}
{"compound": "O=C(N[C@H]1N=C(c2ccccc2)c2cccc(F)c2NC1=O)c1c(-c2ccccc2F)nn2c1OCC(CN1CCC(F)(F)C1)C2", "note": "(stereo partly drawn) [Example 186, 6-[(3,3-Difluoropyrrolidin-1-yl)methyl]-N-[(3S)-9-fluoro-2-oxo-5-phenyl-1,3-dihydro-1,4-benzodiazepin-3-yl]-2-(2-fluorophenyl)-6,7-dihydro-5H-pyrazolo [5,1-b][1,3]oxazine-3-carboxamide]", "values": [{"measurement": "CC50", "setting": "cell toxicity CC50", "value": "> 25000", "unit": "nM"}, {"measurement": "EC50", "setting": "[1]", "value": 59, "unit": "nM"}]}
{"compound": "O=C(N[C@H]1N=C(c2ccccc2)c2cccc(F)c2NC1=O)c1c(-c2ccccc2F)nn2c1OC(CN1CCCC1)CC2", "note": "(stereo partly drawn) [Example 187, N-[(3S)-9-fluoro-2-oxo-5-phenyl-1,3-dihydro-1,4-benzodiazepin-3-yl]-2-(2-fluorophenyl)-5-(pyrrolidin-1-ylmethyl)-6,7-dihydro-5H-pyrazolo[5,1-b][1,3]oxazine-3-carboxamide]", "values": [{"measurement": "CC50", "setting": "cell toxicity CC50", "value": "> 8840", "unit": "nM"}, {"measurement": "EC50", "setting": "[1]", "value": 249, "unit": "nM"}]}
{"compound": "CCNCC1COc2c(C(=O)N[C@H]3N=C(c4ccccc4)c4cccc(F)c4NC3=O)c(-c3ccccc3F)nn2C1", "note": "(stereo partly drawn) [Example 192, 6-(Ethylaminomethyl)-N-[(3S)-9-fluoro-2-oxo-5-phenyl-1,3-dihydro-1,4-benzodiazepin-3-yl]-2-(2-fluorophenyl)-6,7-dihydro-5H-pyrazolo[5,1-b][1,3]oxazine-3-carboxamide]", "values": [{"measurement": "CC50", "setting": "cell toxicity CC50", "value": "> 24400", "unit": "nM"}, {"measurement": "EC50", "setting": "[1]", "value": 243, "unit": "nM"}]}
{"compound": "CSc1ccc(-c2nn3c(c2C(=O)N[C@H]2N=C(c4ccccc4)c4cccc(F)c4NC2=O)OCCC3)c(F)c1", "note": "[Example 193, 2-(2-Fluoro-4-methylsulfanylphenyl)-N-[(3S)-9-fluoro-2-oxo-5-phenyl-1,3-dihydro-1,4-benzodiazepin-3-yl]-6,7-dihydro-5H-pyrazolo[5,1-b][1,3]oxazine-3-carboxamide]", "values": [{"measurement": "CC50", "setting": "cell toxicity CC50", "value": "> 25000", "unit": "nM"}, {"measurement": "EC50", "setting": "[1]", "value": 19, "unit": "nM"}]}
{"compound": "C[S+]([O-])c1ccc(-c2nn3c(c2C(=O)N[C@H]2N=C(c4ccccc4)c4cccc(F)c4NC2=O)OCCC3)c(F)c1", "note": "(stereo partly drawn) [Example 194, 2-(2-Fluoro-4-methylsulfinylphenyl)-N-[(3S)-9-fluoro-2-oxo-5-phenyl-1,3-dihydro-1,4-benzodiazepin-3-yl]-6,7-dihydro-5H-pyrazolo[5,1-b][1,3]oxazine-3-carboxamide]", "values": [{"measurement": "CC50", "setting": "cell toxicity CC50", "value": "> 25000", "unit": "nM"}, {"measurement": "EC50", "setting": "[1]", "value": 43, "unit": "nM"}]}
{"compound": "O=C(N[C@H]1N=C(c2ccccc2)c2cccc(F)c2NC1=O)c1c(Br)nn2c1OCCC2", "note": "[Example 195, 2-Bromo-N-[(3S)-9-fluoro-2-oxo-5-phenyl-1,3-dihydro-1,4-benzodiazepin-3-yl]-6,7-dihydro-5H-pyrazolo[5,1-b][1,3]oxazine-3-carboxamide]", "values": [{"measurement": "CC50", "setting": "cell toxicity CC50", "value": "> 25000", "unit": "nM"}, {"measurement": "EC50", "setting": "[1]", "value": 355, "unit": "nM"}]}
{"compound": "CCS(=O)(=O)c1ccc(-c2nn3c(c2C(=O)N[C@H]2N=C(c4ccccc4)c4cccc(F)c4NC2=O)O[C@H](C)CC3)c(F)c1", "note": "[Example 197, (5R)-2-(4-Ethylsulfonyl-2-fluorophenyl)-N-[(3S)-9-fluoro-2-oxo-5-phenyl-1,3-dihydro-1,4-benzodiazepin-3-yl]-5-methyl-6,7-dihydro-5H-pyrazolo[5,1-b][1,3]oxazine-3-carboxamide]", "values": [{"measurement": "CC50", "setting": "cell toxicity CC50", "value": "> 25000", "unit": "nM"}, {"measurement": "EC50", "setting": "[1]", "value": 97, "unit": "nM"}]}
